Source: BindingDB's records for doi:10.1016/j.bmcl.2006.06.076 (Fujisawa Pharmaceutical, 2006)

Columns and labels:
[1] = Agonist activity at human PGI2 receptor assessed as inhibition of ADP-induced platelet aggregation
[2] = Agonist activity at rat PGI2 receptor assessed as inhibition of ADP-induced platelet aggregation

Row | IC50 [1] | IC50 [2] | Compound
1 | 60 nM | 1200 nM | O=C(O)COc1cccc(CC2CCCC=C2c2nc(-c3ccccc3)c(-c3ccccc3)o2)c1 [Sodium; {3-[(R)-2-(4,5-diphenyl-oxazol-2-yl)-cyclohex-2-enylmethyl]-phenoxy}-acetate]
2 | 930 nM | – | O=C(O)COc1cccc(Cc2ccccc2-c2nc(-c3ccccc3)c(-c3ccccc3)o2)c1 [sodium 2-(3-(2-(4,5-diphenyloxazol-2-yl)benzyl)phenoxy)acetate]
3 | 533 nM | – | O=C(O)COc1cccc(CC2=C(c3nc(-c4ccccc4)c(-c4ccccc4)o3)CCCC2)c1 [sodium 2-(3-((2-(4,5-diphenyloxazol-2-yl)cyclohex-1-enyl)methyl)phenoxy)acetate]
4 | 114 nM | – | O=C(O)COc1cccc(C[C@@H]2CCCC[C@H]2c2nc(-c3ccccc3)c(-c3ccccc3)o2)c1 [sodium 2-(3-(((1S,2R)-2-(4,5-diphenyloxazol-2-yl)cyclohexyl)methyl)phenoxy)acetate]
5 | 39 nM | – | O=C(O)COc1cccc(C[C@@H]2CCC[C@H]2c2nc(-c3ccccc3)c(-c3ccccc3)o2)c1 [sodium 2-(3-(((1S,2R)-2-(4,5-diphenyloxazol-2-yl)cyclopentyl)methyl)phenoxy)acetate]
6 | 115 nM | – | O=C(O)COc1cccc(C[C@@H]2CCCC[C@@H]2c2nc(-c3ccccc3)c(-c3ccccc3)o2)c1 [sodium 2-(3-(((1S,2S)-2-(4,5-diphenyloxazol-2-yl)cyclohexyl)methyl)phenoxy)acetate]
7 | 53 nM | – | O=C(O)COc1cccc(C[C@@H]2CCC[C@@H]2c2nc(-c3ccccc3)c(-c3ccccc3)o2)c1 [sodium 2-(3-(((1S,2S)-2-(4,5-diphenyloxazol-2-yl)cyclopentyl)methyl)phenoxy)acetate]
8 | 48 nM | 700 nM | O=C(O)COc1cccc(CN2CCC[C@@H]2c2nc(-c3ccccc3)c(-c3ccccc3)o2)c1 [sodium (R)-2-(3-((2-(4,5-diphenyloxazol-2-yl)pyrrolidin-1-yl)methyl)phenoxy)acetate]
9 | 58 nM | > 10000 nM | O=C(O)COc1cccc(CN2CCC[C@H]2c2nc(-c3ccccc3)c(-c3ccccc3)o2)c1 [sodium (S)-2-(3-((2-(4,5-diphenyloxazol-2-yl)pyrrolidin-1-yl)methyl)phenoxy)acetate]
